Laboratory results taken from patent US20190330597A1, “COMPOSITION FOR CULTURE OF PLURIPOTENT STEM CELLS” (The Francis Crick Institute Limited, priority 2017, published 2019).

Assays:
hES cells = hES cells cultured in AI medium with inhibitors of FGF receptors, MEK/ERK or Activin/Nodal (TGFβ) signaling; assay type: cell-based, human; settings: for morphology / survival of hES cells in AI medium with inhibitor: 100 nM PD173074, 1 μM PD0325901 or 10 μM SB-431542, vs DMSO control; for morphology / survival of hES cells in AI medium with inhibitor / expression of pluripotency proteins OCT4 and NANOG (immunofluorescence): 72 hours; for expression of pluripotency proteins OCT4 and NANOG (immunofluorescence): 100 nM PD173074 or 1 μM PD0325901
Method: For culture in AI media, cells were maintained on plates coated with 0.5 μg/cm^2 Laminin-511 (Biolamina, Takara), and generally passaged with ReLeSR, similar to cells in mTeSR™1 on Laminin. Early passage newly-derived hES cells in AI medium were passaged by manual picking. Cells in AI media were also split using various dissociation reagents, as indicated in the Examples. For Accutase or AccuMax (StemCell Technologies), the dissociation reagent was added to wells for 5-10 minutes, the well contents were collected and pelleted, and the dissociation reagent removed. Cells were then resuspended in AI media with or without […] ROCK inhibitor for plating. For Gentle Cell Dissociation Reagent (StemCell Technologies), the reagent was added to wells for 6 minutes, then aspirated and AI medium added. Well contents were collected and disaggregated with a 5 ml stripette. For 0.5 mM EDTA (Sigma), the reagent was added for 5 minutes, then aspirated, and AI medium added and cells disaggregated. For salt-free PBS (Gibco, Life Technologies), the reagent was added for 6 minutes, aspirated, then AI medium added and cells disaggregated.
For inhibitor treatment experiments, cell culture media was supplemented with 100 nM PD173074 (FGF receptor inhibitor), 1 μM PD0325901 (MEK inhibitor) or 10 μM SB-431542 (Activin/Nodal receptor inhibitor) as indicated in the Examples. Cells were exposed to inhibitors for 72 hours.
On the day of fixation, medium was removed from pluripotent cell lines or differentiated cells and the cells were washed with Dulbeco's Phosphate-Buffer saline (PBS) without calcium and magnesium (Thermo Fisher Scientific). Cells were fixed with 4% (w/v) paraformaldehyde (PFA) (ThermoFisher Scientific) for 1 h and permeabilised with 0.5% (w/v) Triton X-100 or 0.5% (v/v) Tween-20 (Sigma Aldrich). Non-specific binding was minimised using 2-10% (v/v) donkey serum (AbCam) in PBS (containing 0.05% (v/v) Tween-20 or 0.01% Tween-20). The following primary antibodies were used (all at 1:500 dilution unless otherwise indicated): anti-NANOG (AF1997 R&D Systems; REC-RCAB0001P, 2B Scientific; 4903P, Cell Signaling Technologies or ab21624, Abcam), anti-SOX17 (AF1924, R&D Systems), anti-TRA-1-81 (MAB4381, Millipore; or 560072, BD Biosciences), anti-TUJ1 (T2200, Sigma), anti-FOXA2 (3143, Cell Signaling), anti-OCT4 (sc-5279, Santa Cruz or 2750S, Cell Signaling Technologies), anti-SSEA4 (MA1-021, Life Technologies or MC-813-70, DSHB, 1:100), anti-TRA-1-60 (MAB4360, Millipore, 1:100), anti-CXCR4 (MAB173, R&D), anti-Desmin (RB-9014-R7, Neomarkers, 1:50), anti-AFP (A0008, Dako), anti-cytokeratin-18 (ab668, Abcam). Primary antibody was removed by washing with PBS (containing 0.05% or 0.01% v/v Tween-20). Secondary antibodies (Alexa Fluor® 488, Alexa Fluor® 594, Alexa Fluor® 555 donkey anti-rabbit, mouse or goat, Molecular Probes) were diluted in blocking solution at a 1:300 concentration and added to the corresponding wells for 1 hour at room temperature. Cells were the washed several times in of 0.1% (v/v) Tween-20 and placed in a last wash for 30 minutes. A drop of Vectashield containing DAPI (Vector Labs) was added to each well prior to imaging.

H9 cells = assay: Test of laminin variants as basement membrane substrate for H9 cells in mTeSR1; assay type: cell-based, human; settings: 0.5 μg/cm^2 coating, mTeSR1 media, 3 days, vs Matrigel
From the text: We therefore interrogated the transcriptome data set to identify chemically defined and physiologically relevant substrates for the derivation of hES and iPS cells. We also interrogated the transcriptome data set and identified expression of transcripts for laminin-binding Integrin α6 and Integrin-β1 (ITGA6, ITGB1) in the human blastocyst, as shown in FIG. 3A. […] Consequently, recombinant human Laminin-511 (Biolamina) or a recombinant Laminin-511 E8 fragment (iMatrix-511, Takara) were selected as basement membrane substrates to culture hES cells, in order to recapitulate the niche within the blastocyst. To test the laminin variants, H9 cells in mTeSR™1 media were passaged onto plates coated with 0.5 μg/cm^2 of either iMatrix-511 (Takara) or LN-511 (Biolamina), as well as a control Matrigel plate, and cultured for 3 days.
For culture in mTeSR™1 media (StemCell Technologies), cells were generally maintained on Matrigel-coated (BD Biosciences) tissue culture plates. Matrigel coating was performed for one hour at room temperature (RT) as per the manufacturer's instructions Cells were passaged as clumps using ReLeSR (Stemcell Technologies). ReLeSR was added to wells for 30 seconds at RT then aspirated, then plates were incubated for 5 minutes at 37° C., quenched with mTeSR™1 and lightly tapped to dislodge clumps of the desired size. […]

human embryos = assay: Human embryo culture with growth factor treatment, immunofluorescence and automated quantification; assay type: cell-based
Method: Human embryos were donated to the research project by informed consent under the UK Human Fertilisation and […] Licence number R0162. Vitrified embryos frozen in straws were thawed by quickly transferring the contents of the straw from liquid nitrogen directly into thaw solution (Irvine Scientific Vitrification Thaw Kit) and thawed as per manufacturer's instructions. Embryos frozen in cryopets were first thawed for 3 seconds in a 37° C. waterbath before transferring into thaw solution (Irvine Scientific Vitrification Thaw Kit). Embryos frozen in glass ampoules were thawed completely in a 37° C. waterbath after the top of the vial was removed under liquid nitrogen. The contents were emptied onto a petri dish and the embryo transferred through a gradient of sucrose solutions (Quinn's Advantage Thaw Kit, Origio) as per manufacturer's instructions.
Embryos were routinely cultured in Global Media (LifeGlobal) supplemented with 5 mg/mL LifeGlobal Protein Supplement pre-equilibrated in an incubator at 37° C. and 5% CO2. For growth factor or inhibitor treatment, these conditions were further supplemented with FGF2 (3718-FB-01M, R&D) or IGF1 (291-G1-10, R&D) as indicated.
Embryos were fixed with 4% (w/v) paraformaldehyde (PFA) (ThermoFisher Scientific) for 1 h at 4° C. on a rotating shaker and analysed as described previously (Niakan and Eggan, Developmental Biology, 2013: doi: 10.1016/j.ydbio.2012.12.008). Briefly, embryos were then transferred through several washes of 0.1% (v/v) Tween-20 (Sigma Aldrich) diluted in Dulbeco's Phosphate-Buffer saline (PBS) without calcium and magnesium (Thermo Fisher Scientific) to remove residual paraformaldehyde. Embryos were placed for 20 minutes in 0.5% (v/v) Tween-20 for permeabilization. Embryos were blocked for 1 hour at room temperature in blocking solution (10% donkey serum diluted in 0.1% (v/v) Tween-20). Embryos were placed in primary antibodies at a concentration of 1:500 in blocking solution overnight at 4° C. on a rotating shaker. The following primary antibodies were used (all at 1:500 dilution): anti-NANOG (AF1997 R&D Systems, REC-RCAB0001P 2B Scientific, or ab21624, Abcam), anti-GATA6 (SC-9055, Santa Cruz) and anti-SOX17 (AF1924, R & D Systems). The following day, embryos were transferred through 4 washes of 0.1% (v/v) Tween-20 then placed in a last wash for 30 minutes. Secondary antibodies (Cy3, FITC or Cy5 donkey anti-rabbit, mouse or goat, Molecular Probes) were diluted in blocking solution at a 1:300 concentration. Embryos were placed in secondary antibody for 1 hour at room temperature on a rotating shaker, transferred through 4 washes of 0.1% (v/v) Tween-20 and placed in a last wash for 30 minutes. Embryos were placed in a 50 μL 1:3 dilution of Vectashield containing DAPI (Vector Labs): 0.1% (v/v) Tween-20 on a coverslip bottom dish (MatTek) for confocal imaging.
Embryos were imaged on a Leica SP5 inverted confocal microscope (Leica Microsystems GmbH) at a z-section thickness of 3 μm or 2 μm for human or mouse embryos respectively. MINS 1.3 software was used to detect and segment nuclei and thus determine the number of cells in each embryo (http://katlab-tools.org/) (Lou et al., Stem Cell Reports 2014, doi: 10.1016/j.stemcr.2014.01.010). Confocal stacks in .tif format were loaded into the MINS pipeline for automated nuclear segmentation.
The MINS segmentation output was manually checked for appropriate segmentation and mitotic nuclei were removed from the analysis. Data were subsequently plotted using GraphPad Prism version 6 (GraphPad Software, La Jolla, Calif.).

## O=C(NOC[C@H](O)CO)c1ccc(F)c(F)c1Nc1ccc(I)cc1F [MEK/ERK inhibitor, PD0325901]
hES cells
  morphology / survival of hES cells in AI medium with inhibitor: retained the morphology of pluripotent cells
  expression of pluripotency proteins OCT4 and NANOG (immunofluorescence): retained the expression

## Laminin-511: recombinant human Laminin-511 (Biolamina)
H9 cells
  pluripotency morphology of H9 cells on substrate: equivalent to Matrigel coating

## FGF2
Human embryos; 100 ng/ml FGF2 from E2.5
  GATA6 (extraembryonic marker) expression: still expressed
Human embryos; 100 ng/ml FGF2 from E2.5, analysed at E6-7
  NANOG expression compared to untreated controls (immunofluorescence): loss of NANOG expression
Human embryos; 100 ng/ml FGF2 from E5 to E6-7
  NANOG expression: remained expressed
  SOX17 (extraembryonic marker) expression: remained expressed
Human embryos; 1 μg/ml FGF2 from E2.5
  GATA6 (extraembryonic marker) expression: still expressed
Human embryos; 1 μg/ml FGF2 from E2.5, analysed at E6-7
  NANOG expression compared to untreated controls (immunofluorescence): loss of NANOG expression

## CCN(CC)CCCCNc1ncc2cc(-c3cc(OC)cc(OC)c3)c(NC(=O)NC(C)(C)C)nc2n1 [FGF receptor inhibitor, PD173074]
hES cells
  morphology / survival of hES cells in AI medium with inhibitor: retained the morphology of pluripotent cells
  expression of pluripotency proteins OCT4 and NANOG (immunofluorescence): retained the expression

## NC(=O)c1ccc(-c2nc(-c3ccc4c(c3)OCO4)c(-c3ccccn3)[nH]2)cc1 [TGFβ inhibitor, SB-431542]
hES cells
  morphology / survival of hES cells in AI medium with inhibitor: underwent apoptosis
hES cells; 10 μM SB-431542, 3 days
  NANOG expression in remaining colonies (immunofluorescence): undetectable in the majority of cells

## IGF1
Human embryos; 17 nM IGF1 from E2.5, analysed at E6-7, p-value<0.05
  increase in the proportion of NANOG expressing cells compared to control embryos: 2 fold
Human embryos; human embryos treated with IGF1
  KLF17 (epiblast marker) expression: expressed in a higher proportion of cells
